Assay results taken from PMC3307806 (Molecular Pharmaceutics, 2012).
“Also recorded” adds a separate entry of the source.

Experiments:
P-gp (mdr1a/b) = details: 7; cited from earlier work
[1] = Pseudo-steady-state blood CsA and plasma Lop/dLop concentrations in rats; details: 60 min; Student's t-test
P-gp at the rat BBB = P-gp at the rat BBB (Rattus norvegicus, UniProt Q6PSM0); details: absence of CsA, 60 min, n=5
P-gp = details: verapamil-bodipy or prazosin-bodipy as probe substrate; cited from earlier work
P-gp at the human BBB = details: human PET study; cited from earlier work

P-gp at the rat BBB, sequence (Q6PSM0 1-1272): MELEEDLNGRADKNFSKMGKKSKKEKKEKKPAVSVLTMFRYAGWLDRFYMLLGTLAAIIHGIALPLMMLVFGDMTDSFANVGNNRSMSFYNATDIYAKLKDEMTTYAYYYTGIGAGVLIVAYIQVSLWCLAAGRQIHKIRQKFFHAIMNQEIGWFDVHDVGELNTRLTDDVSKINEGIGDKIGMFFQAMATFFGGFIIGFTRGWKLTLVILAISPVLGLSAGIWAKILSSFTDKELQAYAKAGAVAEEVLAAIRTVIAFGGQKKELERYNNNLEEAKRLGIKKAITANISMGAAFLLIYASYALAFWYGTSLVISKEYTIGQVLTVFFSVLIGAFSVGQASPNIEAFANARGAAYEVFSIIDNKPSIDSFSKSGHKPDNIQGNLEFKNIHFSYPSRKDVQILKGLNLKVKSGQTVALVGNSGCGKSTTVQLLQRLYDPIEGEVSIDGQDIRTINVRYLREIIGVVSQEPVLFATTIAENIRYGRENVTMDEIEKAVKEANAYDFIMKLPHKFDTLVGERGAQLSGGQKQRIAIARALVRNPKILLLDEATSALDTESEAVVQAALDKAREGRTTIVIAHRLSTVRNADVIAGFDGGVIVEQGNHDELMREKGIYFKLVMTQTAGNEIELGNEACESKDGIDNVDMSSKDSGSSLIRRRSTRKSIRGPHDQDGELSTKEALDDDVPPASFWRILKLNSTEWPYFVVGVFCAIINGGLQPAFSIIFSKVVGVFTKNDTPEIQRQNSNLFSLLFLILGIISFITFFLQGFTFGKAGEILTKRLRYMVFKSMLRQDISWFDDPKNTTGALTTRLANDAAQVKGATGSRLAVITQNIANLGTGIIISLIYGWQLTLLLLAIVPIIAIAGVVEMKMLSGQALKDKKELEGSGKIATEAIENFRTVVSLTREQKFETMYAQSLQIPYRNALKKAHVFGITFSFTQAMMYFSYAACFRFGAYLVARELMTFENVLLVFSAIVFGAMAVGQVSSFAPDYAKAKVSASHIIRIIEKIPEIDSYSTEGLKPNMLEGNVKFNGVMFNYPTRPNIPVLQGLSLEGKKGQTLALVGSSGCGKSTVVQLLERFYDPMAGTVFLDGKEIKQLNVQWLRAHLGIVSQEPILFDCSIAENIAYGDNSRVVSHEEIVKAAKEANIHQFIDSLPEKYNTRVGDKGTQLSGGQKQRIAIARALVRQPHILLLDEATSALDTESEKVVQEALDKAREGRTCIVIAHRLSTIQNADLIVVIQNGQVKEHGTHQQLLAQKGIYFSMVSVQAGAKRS

SMILES | effect of the presence of CsA on pseudo-steady-state plasma concentration [1] | difference in potency (EC50) to inhibit P-gp depending on the probe substrate (P-gp) [fold] | further results
Cc1c(O)cccc1C(=O)N[C@@H](CSc1ccccc1)[C@H](O)CN1C[C@H]2CCCC[C@H]2C[C@H]1C(=O)NC(C)(C)C [Nelfinavir] |  |  | increase in brain:blood concentration ratio in mdr1a/b(-/-) vs. wild-type mice (P-gp (mdr1a/b)): 3400%
CN(C)C(=O)C(CCN1CCC(O)(c2ccc(Cl)cc2)CC1)(c1ccccc1)c1ccccc1 [Lop, Loperamide] | did not significantly affect; also recorded: not significantly affected |  | 
CNC(=O)C(CCN1CCC(O)(c2ccc(Cl)cc2)CC1)(c1ccccc1)c1ccccc1 [dLop, N-desmethyl Loperamide] | did not significantly affect; also recorded: not significantly affected |  | brain:plasma concentrations (ratio) corrected for vascular content (P-gp at the rat BBB): 0.11 ± 0.04; brain:plasma concentrations (ratio) (P-gp at the rat BBB; not corrected for vascular content): 0.14 ± 0.04
CCC(C)n1ncn(-c2ccc(N3CCN(c4ccc(OCC5COC(Cn6cncn6)(c6ccc(Cl)cc6Cl)O5)cc4)CC3)cc2)c1=O (centres unmarked) [itraconazole] |  | 10 | 
CN([11CH3])C(=O)C(CCN1CCC(O)(c2ccc(Cl)cc2)CC1)(c1ccccc1)c1ccccc1 [11C-Lop] |  |  | share of radioactivity in the plasma (P-gp at the human BBB): 76%
C=C[C@H]1C[N@@]2CC[C@H]1C[C@@H]2[C@@H](O)c1ccnc2ccc(OC)cc12 [quindine] |  | 20 | 
